1 compound from patent US10160705B2, “Class of HDAC inhibitors expands the renal progenitor cells population and improves the rate of recovery from acute kidney injury” (University of Pittsburgh—Of the Commonwealth System of …, priority 2011, dated 2018) can be followed below.

Molecules are shown by their SMILES. Read-outs that look alike come from different tables or passages of the source.

In experiment [1] the test system is renal progenitor cells. The experiment in a line: In situ hybridization for lhx1a expression in 10-somite embryos (renal progenitor cell expansion). On Lhx1a expansion caused by analog treatment, 3 μM: key: effective (+); partially effective (+/−); ineffective (−); Analogs that killed all embryos at a given concentration before reaching 10 somites are listed as XX. On Lhx1a expansion caused by analog treatment, 800 nM: key: effective (+); partially effective (+/−); ineffective (−); Analogs that killed all embryos at a given concentration before reaching 10 somites are listed as XX. The class given is in vivo. In a few lines: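 Zebrafish embryos treated with compound, then colorimetric whole-mount in situ hybridization (65° C) for lhx1a mRNA at 10 somites. Embryos with expanded kidney field counted manually as percent of total. EC50 taken as 50% point of percent-expansion trendline; compounds also classed effective, partial or ineffective versus PTBA at matched concentration.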

The test system of experiment [2] is lhx1a, pax2a, pax8, ntla. The experiment in a line: Relative qPCR in the trunk region of 10-somite embryos. The class given is in vivo, zebrafish. To be noted: 3 μM. The protocol: Several of the genes analyzed by qPCR, including lhx1a and pax2a, show expression in anterior regions of the embryo as well as the IM. To focus more specifically on effects in the IM, cDNA samples taken from the trunks of treated and control embryos were examined. Samples for trunk RNA extraction were prepared by cutting embryos just above the first somite with microscissors and discarding the anterior portion. The trunk portions were homogenized with a plastic microcentrifuge pestle in 500 μL of TRI reagent (Ambion), and RNA was isolated using an RNeasy Micro Kit (QIAGEN) per the manufacturer's instructions. 1 μg RNA was heated to 75° C. for 5 min and then placed on ice. […]
Primer sets were designed using NetPrimer and Beacon Designer (ver. 7.51) primer analysis software (PREMIER Biosoft). […] Primer melting temperatures were maintained between 60° C. and 64° C. as determined by NetPrimer. […] The reference gene primer sets have been previously described (Tang, R., Dodd, A., Lai, D., McNabb, W. C. & Love, D. R. Validation of zebrafish (Danio rerio) reference genes for quantitative real-time RT-PCR normalization. Acta Biochim Biophys Sin (Shanghai) 39, 384-390, (2007)) with one modification. […]
Relative gene expression was calculated using iQ5 software (ver. 2.0, Bio-Rad) to determine normalized expression levels (ΔΔCt method). […]
For orientation: Real-time PCR tracks product formation cycle by cycle.

Experiment [3] relates to kidney field. Nature of the experiment: In situ hybridization for kidney markers (pax2a, pax8, cdh17, wt1a, slc4a4, slcl2a1). The class given is in vivo, zebrafish. The following applies: 3 μM. On the procedure: PTBA was synthesized as described below. Hydroxyurea and aphidicolin were obtained from Sigma-Aldrich.
In situ hybridization and immunocytochemistry: In situ hybridization was performed as previously described with some modifications.142 Hybridization temperature was 65° C. Embryos were blocked in 2% blocking reagent (Roche) with 5% sheep serum in MAB (100 mM maleic acid and 150 mM NaCl [pH 7.5]). Whole-mount immunocytochemistry with 1:25 mouse anti-α6F antibody (Developmental Studies Hybridoma Bank) and 1:100 Cy3 secondary antibody (Jackson ImmunoResearch) was performed as described previously.108 Embryos were embedded in JB-4 for sectioning per the manufacturer's instructions (Polysciences), sectioned at 5 μm, and mounted with Cytoseal 60 (Richard-Allan Scientific).

By EC50 is commonly meant the concentration giving half of the maximal effect. Consider `O=C(O)CCCSc1ccccc1` [UPHD-00020, 4-(phenylthio)butanoic acid (PTBA)], for which the “Lhx1a expansion caused by analog treatment, 800 nM” value in experiment [1] (800 nM from 2 hpf, 10-somite embryos) is on record as “+/−”. Moreover, the “Lhx1a expansion caused by analog treatment, 1.5 μM” value in experiment [1] (1.5 μM from 2 hpf, 10-somite embryos) is on record as “+”. Further, the “Lhx1a expansion caused by analog treatment, 3 μM” value in experiment [1] (3 μM from 2 hpf, 10-somite embryos) is “+”. In addition, the responders at 1.5 µM in experiment [1] (Danio rerio, 1.5 μM from 2 hpf, 10-somite embryos, read-out: lhx1a expansion, percent of treated embryos) came out at 83%. For the same compound, the responders at 3 µM in experiment [1] (Danio rerio, 3 μM PTBA added at 8 hpf after 0.5% DMSO at 5 hpf (HUA study), read-out: lhx1a expansion, percent of treated embryos) worked out at 97%; in experiment [1] (Danio rerio, 3 μM PTBA together with HUA (hydroxyurea and aphidicolin), read-out: lhx1a expansion, percent of treated embryos) it was 13%; in experiment [1] (Danio rerio, 3 μM from 2 hpf, 10-somite embryos, read-out: lhx1a expansion, percent of treated embryos) it was 95%; in experiment [1] (Danio rerio, embryos injected with 200 pg DN-RARα mRNA, 3 μM PTBA from 5 hpf, read-out: lhx1a expansion, percent of treated embryos), 19%; in experiment [1] (Danio rerio, mock-injected embryos, 3 μM PTBA from 5 hpf, read-out: lhx1a expansion, percent of treated embryos) it was 90%; in experiment [1] (Danio rerio, percent of embryos with expanded kidney field, 3 μM, read-out: Expansion of Cells (including repeats* and recounts**) 3 μM), 100%. Moreover, the responders at 0.2 µM in experiment [1] (Danio rerio, percent of embryos with expanded kidney field, 200 nM, read-out: Expansion of Cells (including repeats* and recounts**) 200 nM) amounted to 10%. Also, the responders at 0.4 µM in experiment [1] (Danio rerio, percent of embryos with expanded kidney field, 400 nM, read-out: Expansion of Cells (including repeats* and recounts**) 400 nM) turned out to be 10%. Besides, the response in experiment [1] (Danio rerio, first pass EC50 from percent expansion (Excel trendline), average where several experiments) was half-maximal at 1400 nM (EC50). The “increase in pax2a expression by qPCR” value in experiment [2] is listed as “almost two-fold increase”. For the same compound, in experiment [2], the “increase in relative lhx1a transcript by qPCR” value is reported as “three-fold increase”. For the same compound, the “expansion of slc4a4 (proximal tubule)” value in experiment [3] (48 hpf) is 92%. Further, the “pax2a expression at 24 hpf” value in experiment [3] (treatment beginning at 16.5 hpf (15 somites)) is reported as “no kidney field expansion”; in experiment [3] (treatment initiated between 2 hpf and 14 hpf (10 somites)), “expanded pax2a expression”.
